# Experimental data from ChEMBL document CHEMBL3286118, “Synthesis and in vitro antitumor activity of novel 2-alkyl-5-methoxycarbonyl-11-methyl-6H-pyrido[4,3-b]carbazol-2-ium and 2-alkylellipticin-2-ium chloride derivatives” (Eur J Med Chem, 2014).
# Assay: Cytotoxicity against human HeLaS3 cells assessed as cell viability after 24 to 72 hrs by MTT assay
# Format: functional, cell-based
# Conditions: HeLa S3
row,SMILES,IC50 [µM]
1,Cc1c2c[n+](CCCCCN)ccc2c(C)c2c1c1cc(O)ccc1n2C,19.3
2,COC(=O)c1c2cc[n+](CCOCCN)cc2c(C)c2c1[nH]c1ccccc12,41.3
3,Cc1c2c[n+](CCOCCN)ccc2c(C)c2c1c1cc(O)ccc1n2C,17.9
4,Cc1c2cc[n+](CCOCCN)cc2c(C)c2c1[nH]c1ccccc12,27.8
5,Cc1c2cc[n+](CCOCCN)cc2c(C)c2c1[nH]c1ccc(O)cc12,17.7
6,Cc1c2cc[n+](C)cc2c(C)c2c1[nH]c1ccccc12,2.9
7,CNC(=O)NCCOCC[n+]1ccc2c(C)c3[nH]c4ccccc4c3c(C)c2c1,75.3
8,CNC(=O)NCCOCC[n+]1ccc2c(C)c3[nH]c4ccc(O)cc4c3c(C)c2c1,29.4
9,CNC(=O)NCCOCC[n+]1ccc2c(C)c3c(c(C)c2c1)c1cc(O)ccc1n3C,6.2
10,CNC(=O)NCCCCC[n+]1ccc2c(C)c3c(c(C)c2c1)c1cc(O)ccc1n3C,32.5
11,COC(=O)c1c2cc[n+](CCOCCNC(=O)N(C)N=O)cc2c(C)c2c1[nH]c1ccccc12,51.9
12,Cc1c2cc[n+](CCOCCNC(=O)N(C)N=O)cc2c(C)c2c1[nH]c1ccc(O)cc12,60
13,Cc1c2c[n+](CCOCCNC(=O)N(C)N=O)ccc2c(C)c2c1c1cc(O)ccc1n2C,18.4
14,COC(=O)c1c2cc[n+](CCN)cc2c(C)c2c1[nH]c1ccccc12,5.8
15,COC(=O)c1c2cc[n+](CCCN)cc2c(C)c2c1[nH]c1ccccc12,2.5
16,CNC(=O)NCC[n+]1ccc2c(C(=O)OC)c3[nH]c4ccccc4c3c(C)c2c1,6.6
17,COC(=O)c1c2cc[n+](CCNC(=O)N(C)N=O)cc2c(C)c2c1[nH]c1ccccc12,15
18,CNC(=O)NCCC[n+]1ccc2c(C(=O)OC)c3[nH]c4ccccc4c3c(C)c2c1,24
19,COC(=O)c1c2cc[n+](CCCNC(=O)N(C)N=O)cc2c(C)c2c1[nH]c1ccccc12,1.3
20,Cc1c2ccncc2c(C)c2c1[nH]c1ccccc12 [ELLIPTECINE],2.1
21,CN(N=O)C(N)=O [N-METHYL-N-NITROSUREA],> 100
